According to ChEMBL document CHEMBL3751807, “Design of High-Affinity Stapled Peptides To Target the Repressor Activator Protein 1 (RAP1)/Telomeric Repeat-Binding Factor 2 (TRF2) Protein-Protein Interaction in the Shelterin Complex” (J Med Chem, 2016):
Each block holds one compound with its values, some of them ahead of it.

What was measured:
[1] = Solubility of compound in phosphate buffer at 100 uM; assay type: physicochemical
[2] = Solubility of compound in phosphate buffer at 15 uM; assay type: physicochemical
[3] = target: T1, Telomeric repeat-binding factor 2-interacting protein 1 (Homo sapiens, UniProt Q9NYB0); assay: Competitive binding to RAP1 (unknown origin) incubated for 1 hr by fluorescence polarization-based binding assay
T1 sequence (Q9NYB0 whole entry): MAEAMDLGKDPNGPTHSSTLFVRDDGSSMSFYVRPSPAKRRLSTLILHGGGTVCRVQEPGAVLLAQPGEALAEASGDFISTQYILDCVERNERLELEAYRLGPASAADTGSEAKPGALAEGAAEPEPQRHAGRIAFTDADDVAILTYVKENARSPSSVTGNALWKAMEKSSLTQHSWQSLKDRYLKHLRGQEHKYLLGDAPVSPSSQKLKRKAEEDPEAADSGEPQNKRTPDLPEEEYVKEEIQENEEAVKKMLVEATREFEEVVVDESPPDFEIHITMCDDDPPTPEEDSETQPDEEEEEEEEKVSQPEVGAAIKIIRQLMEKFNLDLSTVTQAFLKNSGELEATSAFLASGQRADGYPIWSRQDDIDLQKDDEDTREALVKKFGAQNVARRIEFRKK

solubility [1]: soluble
Compound: CC[C@@H](C)[C@H](NC(=O)[C@@H](NC(=O)[C@@H](NC(C)=O)[C@@H](C)O)[C@@H](C)O)C(=O)NCC(=O)N[C@@H](CCSC)C(=O)N[C@@H](CCSC)C(=O)N[C@H](C(=O)N[C@@H](CC(C)C)C(=O)N[C@@H](CCCCN)C(=O)N[C@@H]1CCCCn2cc(nn2)C[C@H](C(=O)N[C@@H](CC(C)C)C(=O)N[C@H](CO)C(N)=O)NC(=O)[C@@H](CCCCN)NC(=O)[C@@H](Cc2ccccc2)NC(=O)[C@H](C)NC1=O)[C@@H](C)O (stereo in doubt)

solubility [2]: Insoluble
Compound: C#CC[C@@H](NC(=O)[C@H](CCCCN)NC(=O)[C@H](Cc1ccccc1)NC(=O)[C@H](C)NC(=O)[C@H](CCCCN=[N+]=[N-])NC(=O)[C@H](CCCCN)NC(=O)[C@H](CC(C)C)NC(=O)[C@@H](NC(=O)[C@H](CCSC)NC(=O)[C@H](CCSC)NC(=O)CNC(=O)[C@@H](NC(=O)[C@@H](NC(=O)[C@@H](NC(C)=O)[C@@H](C)O)[C@@H](C)O)[C@@H](C)CC)[C@@H](C)O)C(=O)N[C@@H](CC(C)C)C(=O)N[C@@H](CO)C(N)=O

IC50 [3]: > 200 µM
Compound: Ac-TTIGMKTLKAAFKT-NH2
